Data on 1 compound can be found in patent US8247170B2, “Detection of penicillin tolerance in Group B Streptococcus: single nucleotide polymorphisms in penicillin binding protein 4” (priority 2008, dated 2012).

This assay has as its system GBS strains. Kind of assay: Cell viability by intracellular ATP concentration after penicillin. In kind it is cell-based, Group B Streptococcus. Conditions: GBS strain A909 compared to NEM316 and O90R; 100×MIC90 Penicillin G 22 hours. Here is the method: GBS strains were cultured for 18 hours at 37° C. in THB. These cultures were used to inoculate fresh THB and subsequently allowed to grow to exponential phase (OD600 0.25-0.3) at 37° C. One (1) ml of culture was centrifuged at 5,000 g for 4 min. The cell pellet was re-suspended in ATP free water. Cellular ATP was extracted by using trichloroacetic acid (TCA) (5%) for 2 min. and subsequently neutralized with Tris-EDTA-0.1M NaOAc, pH 7.75 to 10×TCA volume. The initial (in.) cellular ATP concentration ([ATP]) was measured using the ENLITEN (Promega) luciferase based reaction kit. THB cultures then treated 100×MIC90 Penicillin G for 22 hours. The experimental (exp.) cellular ATP was extracted and the concentration was measured as stated above. Based on the calculations ([ATP] exp.)/([ATP] in./O.D. in.), differences in viability were equated with the change in [ATP].
(I) Bacterial Strains and Culture Conditions. […] Cell cultures were allowed to re-grow for an additional 24 h at 37° C. before the OD600 was measured. […] The initial (in.) cellular ATP concentration ([ATP]) was measured using the ENLITEN (Promega) luciferase based reaction kit. […] The experimental (exp.) cellular ATP was extracted and the concentration was measured as stated above. […]

Turning to `CC1(C)S[C@@H]2[C@H](NC(=O)Cc3ccccc3)C(=O)N2[C@H]1C(=O)O` [Penicillin G], the “cellular [ATP] content (FIG. 3)” value is “significant lesser [ATP] content”.
